Data reported in patent US6642241B1, “Alkylamino-substituted bicyclic nitrogen heterocycles” (Syntex (U.S.A.) LLC, priority 1999, dated 2003).
Counter-ions that a name gives are not always drawn.

| melting point [°C] | Compound |
| --- | --- |
| 172 to 188 | CC(C)Nc1ncc2c(n1)N(CC(=O)O)C(=O)N(c1ccccc1Cl)C2 [Example 1e, 3-(2-chloro-phenyl)-1-carboxymethyl-7-isopropylamino-3,4-dihydropyrimido[4,5-d]pyrimidin-2(1H)-one] |
| 126 to 131.6 | COCCN1C(=O)N(c2ccccc2Cl)Cc2cnc(NC(C)C)nc21 (as salt: hydrochloride) [Example 2b, 3-(2-chloro-phenyl)-1-(2-methoxy-ethyl)-7-isopropylamino-3,4-dihydropyrimido[4,5-d]pyrimidin-2(1H)-one] |
| 188.8 to 191.4 | CCOC(=O)CN1C(=O)N(c2ccccc2Cl)Cc2cnc(NC(C)C)nc21 [Example 1d, 3-(2-chloro-phenyl)-1-ethoxycarbonylmethyl-7-isopropylamino-3,4-dihydropyrimido[4,5-d]pyrimidin-2(1H)-one] |
